The record followed here is patent US9708359B2, “Pyrrolopyrimidine nucleosides and analogs thereof” (Chimerix, Inc., priority 2015, dated 2017).

Broadly, the pEC50 is the EC50 on a negative log10 scale, so that one unit is a factor of ten.

pEC50: −log10 of the molar value. Like-named read-outs stand apart in the source and are kept apart here.

Series [1] relates to RSV. Kind of series: microbe, parasite or virus in culture. It is filed as cell-based. To be noted: human respiratory syncytial virus, MA104, MA-104 cells.
The test system of series [2] is Vero76.
The test system of series [3] is HSV-2. Kind of series: Plaque-reduction assay for HSV-2. It is filed as cell-based, herpes simplex virus 2. To be noted: Human alphaherpesvirus 2; HSV-2, HFF cells. Here is the method: (§1) Plaque-Reduction Assays for HSV-1, HSV-2, VZV and HCMV:
(§2) Monolayers of cells were prepared in six-well plates and incubated at to allow the cells to reach confluency. Media was then aspirated from the wells and of virus was added to each of three wells to yield 20-30 plaques in each well. The virus was allowed to adsorb to the cells for 1 h and the plates were rocked gently every 15 min to redistribute the media. Compounds were diluted in maintenance cell culture media consisting of MEM with Earl's salts supplemented with 2% FBS, L-glutamine, penicillin, and gentamycin. Solutions were added to duplicate wells and the plates were incubated for various times, depending on the virus used. The plaque-reduction assay with HSV-1 strain F was performed in a similar manner but with Vero cells infected one day after plating. For HSV-1 and -2, the monolayers were stained with 1% crystal violet in 20% methanol and the unbound dye removed by washing with dH2O. For assays with HCMV and VZV, the cell monolayer was stained with 1% Neutral Red solution for 4 h then the stain was aspirated and the cells were washed with PBS. For all assays, plaques were enumerated using a stereomicroscope and the concentration of compound that reduced plaque formation by 50% (EC50) was interpolated from the experimental data. […]

In series [4] the test system is JCV. Nature of the series: qPCR assay for JCV. Format: cell-based, JC virus. Particulars: JC polyomavirus, 293TT cells. The method, then: qPCR Assays for BKV and JCV:
Primary evaluation of compounds against JC virus were also performed by methods similar to those for BK virus primary assays. Secondary assays against JCV were performed in COS7 cells by methods similar to those for BK virus to identify compounds that inhibited adsorption or penetration of the virus.
Primary evaluation of compounds against JC virus were also performed by methods similar to those for BK virus primary assays but were done in 293TT cells and utilized the 1-4 strain of JCV in 293TT cells. Viral DNA was quantified using primers 5′-[…]-3′ (SEQ ID No. 11) and 5′-[…]-3′ (SEQ ID No. 12) and probe 5′-6-FAM-[…]-TAMRA-3′ (SEQ ID No. 13) together with the plasmid pMP508 to provide a standard curve for absolute quantification. Secondary assays against JCV were performed in COS7 cells by methods similar to those for BK virus to identify compounds that inhibited adsorption or penetration of the virus.
On the technique in general: In qPCR the cycle at which signal appears reflects the starting amount.

The test system of series [5] is VZV. Kind of series: Plaque-reduction assay for VZV. It is filed as cell-based, varicella zoster virus. Particulars: Human alphaherpesvirus 3, HFF cells. The method, then:
as §1, §2

The nature of series [6]: Cytotoxicity in lymphocyte assays, Akata cells. It is filed as cell-based. Particulars: human, parallel to EBV assay. Here is the method:
Every antiviral assay included a parallel cytotoxicity assay with the same cells used for each virus, the same cell number, the same drug concentrations, and the same incubation times to provide the same drug exposure. To ensure that the cytotoxicity of all compounds could be compared directly, a standard neutral red uptake cytotoxicity assay for all compounds in confluent HFF cells with a 7 d incubation period was performed.
Cytotoxicity in Lymphocyte Assays:
Cell viability in all assays with lymphocytes was assessed with a luminescent Cell Viability Assay. Briefly, assay plates were incubated at ambient temperature for 30 min then luminescent reagent was added to each well and the plates were mixed to lyse the cells. Plates were then incubated for at ambient temperature and the luminescence was quantified on a luminometer. Standard methods were used to calculate drug concentrations that inhibited the proliferation of cells by 50% (CC50).
Cell viability in all assays with lymphocytes was assessed with the CellTiter-Glo Luminescent Cell Viability Assay (Promega). […] Plates were then incubated for an additional 10 min at ambient temperature and the luminescence was quantified on a luminometer. […]

For the compound `Cc1nc(N)c2c(C(N)=O)cn([C@@H]3O[C@H](CO)[C@@H](O)[C@H]3O)c2n1` [Compound 1, 4-amino-7-((2R,3R,4S,5R)-3,4-dihydroxy-5-(hydroxymethyl)tetrahydrofuran-2-yl)-2-methyl-7H-pyrrolo[2,3-d]pyrimidine-5-carboxamide], the negative logarithm of the EC50 (pEC50) in series [1] is 4.51; in series [3], under 4.22; in series [4] it was 6.34; in series [5], under 4.22. Also, the CC50 in series [2] (African green monkey) is over 100 µM; in series [2] (Vero76 cells, parallel to DENV-2 assay), over 100 µM; in series [2] (Vero76 cells, parallel to ENTV-71 assay), over 100 µM; in series [2] (Vero76 cells, parallel to POV-3 assay), over 100 µM; in series [2] (Vero76 cells, parallel to WNV assay), over 100 µM; in series [6], over 60 µM.
